The text below walks through data of patent US10414759B2, “Phenylthiazoles and uses thereof” (Purdue Research Foundation, priority 2017, dated 2019).

The nature of series [1]: PBS solubility screen (turbidometric). The class given is physicochemical. Here is the method:
The solutions were diluted 100-fold into PBS in a 96-well plate and mixed. The absorbance of the PBS-containing plate was measured prior to addition of the test agents to determine the background absorbance. After 2 h, the presence of precipitate was detected by turbidity (absorbance at 540 nm). […] The solubility limit is reported as the highest experimental concentration with no evidence of turbidity.

Series [2] can be described thus: Metabolic stability in human liver microsomes. The following applies: pH 7.4, human liver microsomes. The class given is in vitro ADME. The protocol: The tested compounds were incubated in duplicate with human liver microsomes at 37° C. The reaction contained microsomal protein in 100 mM potassium phosphate, 2 mM NADPH, 3 mM MgCl2, pH 7.4. A control was run for each test agent omitting NADPH to detect NADPH-free degradation. At 0, 10, 20, 40, and 60 minutes, an aliquot was removed from each experimental and control reaction and mixed with an equal volume of ice-cold Stop Solution (methanol containing haloperidol, diclofenac, or other internal standard). Stopped reactions are incubated at least ten minutes at −20° C., and an additional volume of water was added. The samples were centrifuged to remove precipitated protein, and the supernatants were analyzed by LC/MS/MS to quantitate the remaining parent. Data are converted to % remaining by dividing by the time zero concentration value. Data are fit to a first-order decay model to determine half-life. Intrinsic clearance is calculated from the half-life and the protein concentrations: CLint=ln(2)/(T1/2 [microsomal protein]).

The subject of series [3] is MRSA (2658 RCMB). Briefly: MIC against MRSA (2658 RCMB), broth dilution. It is filed as cell-based, Staphylococcus aureus. The following applies: for MIC: Staphylococcus aureus. Here is the method: Bacteria were cultured in cation-adjusted Mueller Hinton broth in a 96-well plate. Compounds, using triplicate samples, were added to the plate and serially diluted. […] Plates were visually inspected and the MIC was categorized as the concentration at which no visible growth of bacteria was observed. The average of triplicate MIC determinations is reported.
(§1) A bacterial solution equivalent to 0.5 McFarland standard was prepared and diluted in cation-adjusted Mueller-Hinton broth (CAMHB) to achieve a bacterial concentration of about 5×10^5 CFU/mL and seeded in 96-well plates. Enterococcus faecium was diluted in brain heart infusion broth. Enterococcus faecalis, Streptococcus pneumonia and Listeria monocytogenes were diluted in tryptone soya broth (TSB).
In general terms: In broth dilution the organism is exposed to a series of concentrations in liquid medium.

Series [4] relates to Caco-2 cells. Description: Caco-2 bidirectional permeability assay. The following applies: for Mean A→B Papp: Caco-2, apical to basolateral. For orientation: Passage across Caco-2 layers is used to estimate intestinal permeability.
Series [5] deals with Enterococcus faecium ATCC 700221 (VRE). Description: MIC/MBC Gram-positive pathogens (Table 9). The class given is cell-based. To be noted: Table 9; Enterococcus faecium ATCC 700221 (VRE); read-out: MIC. The protocol: The minimum inhibitory concentration (MIC) of tested compounds and control antibiotics were determined using the broth microdilution method in accordance with the recommendations contained in the Clinical and Laboratory Standards Institute guidelines, against methicillin-sensitive (ATCC 6538 and NRS107), methicillin-resistant (MRSA), and vancomycin-resistant (VRSA) Staphylococcus aureus, Staphylococcus epidermidis, Enterococcus faecalis, E. faecium, Listeria monocytogenes, and Streptococcus pneumoniae clinical isolates. A bacterial solution equivalent to 0.5 McFarland standard was prepared and diluted in cation-adjusted Mueller-Hinton broth (CAMHB) to achieve a bacterial concentration of about 5×10^5 CFU/mL and seeded in 96-well plates. Enterococcus faecium was diluted in brain heart infusion broth. Enterococcus faecalis, Streptococcus pneumonia and Listeria monocytogenes were diluted in tryptone soya broth (TSB). Compounds and control drugs were added in the first row of 96-well plates and serially diluted (to achieve a concentration gradient ranging from 128 to 1 μg/mL). Plates were then incubated aerobically at 37° C. for at least 18 hours. The minimum bactericidal concentration (MBC) of the active compounds was tested by plating 5 μL from wells with no growth onto Tryptic soy agar (TSA) plates.

Series [6] deals with MRSA NRS385. Description: MIC/MBC S. aureus strains (Table 8). The class given is cell-based. To be noted: Staphylococcus aureus. The protocol: as §1
Series [7] relates to MRSA NRS384 (USA300). Description: MIC/MBC S. aureus strains (Table 8). It is filed as cell-based. The following applies: Staphylococcus aureus. The protocol:
as §1

The subject of series [8] is S. aureus ATCC 6538. Description: MIC/MBC S. aureus strains (Table 8). The class given is cell-based. The following applies: Staphylococcus aureus, ATCC6538. The protocol: as §1
In series [9] the test system is Methicillin-resistant Staphylococcus epidermidis NRS101. Description: MIC/MBC Gram-positive pathogens (Table 9). It is filed as cell-based. Here is the method: as §1
The test system of series [10] is Enterococcus faecalis ATCC 51299 (VRE). Briefly: MIC/MBC Gram-positive pathogens (Table 9). The class given is cell-based. To be noted: Table 9; Enterococcus faecalis ATCC 51299 (VRE). Here is the method:
as §1

In series [11] the test system is MRSA (USA300). Description: Time-kill assay. The class given is cell-based, Staphylococcus aureus. The following applies: 3.0×MIC. Here is the method:
Aliquots (100 μL) were taken from each sample after 2, 4, 6, 8, 10, 12, and 24 hours, serially diluted in phosphate-buffered saline, and transferred to Trypticase soy agar (TSA) (Becton, Dickinson and Company, Sparks, Md., USA) plates. Plates were incubated at 37° C. for at least 16 hours before counting viable CFU/mL to determine the time required to reduce the bacterial cell count by 3-log10.

Setting [12] is: aqueous buffer, kinetic from dmso stock.
[13] abbreviates: NADPH omitted, read-out: NADPH-free Clint.
Where [14] appears, read: NADPH omitted, read-out: NADPH-free t1/2.
The mark [15] stands for this setting: with NADPH, read-out: NADPH-dependent CLint.
The mark [16] stands for this setting: with NADPH, read-out: NADPH-dependent t1/2.
Where [17] appears, read: Table 1, MRSA (2658 RCMB), read-out: MIC ± SD.
The mark [18] stands for this setting: aqueous buffer, kinetic from dmso stock, phosphate buffered saline (PBS), highest concentration with no precipitate (OD540), read-out: Solubility limit.

≈ marks a conversion by molar mass, not a printed value. Entries after “also recorded” stand apart in the source; their conditions may differ. Where two headings read alike, the source gives them in different places.

As usually defined, the solubility is the dissolved amount per volume that the medium holds. The term melting point denotes the temperature, or range, at which the solid turns liquid. By MBC is commonly meant the lowest tested concentration that kills the bacteria rather than only halting them. Lower therefore signals more potent killing.

Turning to `CCCCc1ccc(-c2nc(C)c(-c3ccnc(N)n3)s2)cc1` [Compound 8, 4-[2-(4-Butylphenyl)-4-methylthiazol-5-yl]pyrimidin-2-amine], the melting point turned out to be 159 °C. Also, the “less soluble than the lead compound 1” value in series [1] (2 h) is given as 32%. The amount in solution in [1] (setting [12]) (solubility at 2 h) came to 42 µM (≈ 13.6 µg/mL). Besides, the microsomal CLint in [2] (setting [13]) is 0.5 µL/min/mg. Also, in series [2] (setting [14]), the half-life is above 60 min. Moreover, the microsomal CLint in series [2] (setting [15]) fell in the range of 3 to 7.5 µL/min/mg. In series [2] (setting [16]), the half-life worked out at 195 min. Besides, the MIC in [3] (setting [17]) is 3.12 ± 0.1 µg/mL (≈ 9.62 µM). Also, in series [3] (Table 1, MRSA (2658 RCMB)), the “MIC ± SD” value worked out at 3.12 ± 0.10 µg/mL (≈ 9.62 µM). Further, in series [4], the “Mean A→B Papp” value was 1.49e-05 cm/s. Further, the “Mean B→A Papp” value in series [4] (Caco-2, basolateral to apical) amounted to 1.7e-05 cm/s. In addition, in series [4] (Papp (B→A)/Papp (A→B)), the Efflux ratio came out at 1.1.
In the case of `CCCCc1ccc(-c2nc(C)c(-c3ccnc(NC(=N)N(C)C)n3)s2)cc1` [Compound 11, 3-{4-[2-(4-Butylphenyl)-4-methylthiazol-5-yl]pyrimidin-2-yl}-1,1-dimethylguanidine], the melting point came to 153.7 °C. In [1] (setting [12]), this compound had a solubility at 2 h of 53 µM (≈ 20.9 µg/mL). In series [2] (setting [13]), the microsomal CLint was 0.5 µL/min/mg. Further, the half-life in series [2] (setting [14]) is above 60 min. In addition, the half-life in [2] (setting [16]) came out at 243 min. In addition, in series [3] (setting [17]), the MIC came to 0.78 µg/mL (≈ 1.98 µM). Also, the “antibacterial (anti-MRSA) activity, in words” value in [3] (Table 1) is reported as “more potent than vancomycin; also recorded: MIC value below one microgram/mL”.
With `Cc1nc(-c2ccc(-c3ccoc3)cc2)sc1-c1ccnc(N)n1` [Compound 24, 4-{2-[4-(Furan-3-yl)phenyl]-4-methylthiazol-5-yl}pyrimidin-2-amine], the melting point was 161.2 °C. In addition, the solubility at 2 h in series [1] (setting [18]) was 13 µM (≈ 4.35 µg/mL). Further, the MIC in [3] (MRSA, read-out: MIC ± SD) is 7.8 ± 0.5 µg/mL (≈ 23.3 µM).
The compound `Cc1nc(-c2ccc(-c3ccco3)cc2)sc1-c1ccnc(N)n1` [Compound 25, 4-{2-[4-(Furan-2-yl)phenyl]-4-methylthiazol-5-yl}pyrimidin-2-amine] returned a melting point of 209.3 °C. The solubility at 2 h in [1] (setting [18]) was determined as 14 µM (≈ 4.68 µg/mL). For the same compound, the MIC in [3] (MRSA, read-out: MIC ± SD) was 8.7 ± 0.3 µg/mL (≈ 26 µM).
As to `Cc1nc(-c2ccc(-c3ccsc3)cc2)sc1-c1ccnc(N)n1` [Compound 26, 4-{4-Methyl-2-[4-(thiophen-3-yl)phenyl]thiazol-5-yl}pyrimidin-2-amine], the melting point was 225 °C (dec.). Further, in series [1] (setting [12]), the concentration in solution (solubility at 2 h) came to 8.5 µM (≈ 2.98 µg/mL). In addition, in series [3] (setting [17]), the MIC is 6.25 µg/mL (≈ 17.8 µM).
The like results for `Cc1nc(-c2ccc(C3=CCCC3)cc2)sc1-c1ccnc(N)n1` [Compound 27, 4-{2-[4-(Cyclopent-1-en-1-yl)phenyl]-4-methylthiazol-5-yl}pyrimidin-2-amine] were, in that order, 160.6 °C, 35 µM (≈ 11.7 µg/mL) and 3.12 µg/mL (≈ 9.33 µM).
The compound `Cc1nc(-c2ccc(C3=CCCCC3)cc2)sc1-c1ccnc(N)n1` [Compound 29, 4-{2-[4-(Cyclohex-1-en-1-yl)phenyl]-4-methylthiazol-5-yl}pyrimidin-2-amine] yielded a melting point of 140.4 °C. The compound further yielded a solubility at 2 h in series [1] (setting [12]) of 37 µM (≈ 12.9 µg/mL). In addition, the MIC in series [3] (setting [17]) came out at 0.78 µg/mL (≈ 2.24 µM).
As for `Cc1nc(-c2ccc(C(C)(C)C)cc2)sc1-c1ccnc(NC(=N)N2CCOCC2)n1` [Compound 61, N-(4-(2-(4-(tert-Butyl)phenyl)-4-methylthiazol-5-yl)pyrimidin-2-yl) morpholine-4-carboximidamide], the MIC in series [5] was 4 µg/mL (≈ 9.16 µM); in [6] it was 4 µg/mL (≈ 9.16 µM); in series [7], 4 µg/mL (≈ 9.16 µM); in series [8], 4 µg/mL (≈ 9.16 µM); in series [3] (Table 7, initial screening, MRSA (2658 RCMB), read-out: minimum inhibitory concentration (MIC)) it was 1.17 µg/mL (≈ 2.68 µM); in [9] it was 4 µg/mL (≈ 9.16 µM). In [10], the MIC came to 4 µg/mL (≈ 9.16 µM). In series [9], this compound returned a minimal bactericidal concentration (MBC) of 4 µg/mL (≈ 9.16 µM). Further, the “bactericidal / bacteriostatic behaviour in time-kill assay, in words” value in series [11] (MRSA) is “rapid bactericidal activity”. For the same compound, the “time to completely eradicate the MRSA inoculum” value in series [11] (t-butyl series) is “within two to four hours”.
`CNC(=C[N+](=O)[O-])NCCSCc1ccc(CN(C)C)o1` [Ranitidine, ranitidine, reference compound]: in series [4], the “Mean A→B Papp” value came to 2e-07 cm/s.
Consider `COC(=O)[C@H]1[C@H]2C[C@@H]3c4[nH]c5cc(OC)ccc5c4CCN3C[C@H]2C[C@@H](OC(=O)c2cc(OC)c(OC)c(OC)c2)[C@@H]1OC` [Reserpine, reserpine, reference compound], for which the solubility at 2 h in series [1] (phosphate buffered saline (PBS), highest concentration with no precipitate (OD540), read-out: Solubility limit) amounted to 31.3 µM (≈ 19.1 µg/mL).
Regarding `CC(=O)CC(c1ccccc1)c1c(O)c2ccccc2oc1=O` (centres unmarked) [Warfarin, warfarin, reference compound], in series [2] (setting [15]), the microsomal CLint came out at 0.3 µL/min/mg.
